According to US20140031227A1, “HERBICIDAL COMPOSITIONS COMPRISING 4-AMINO-3-CHLORO-5-FLUORO-6-(4-CHLORO-2-FLUORO-3-METHOXYPHENYL) PYRIDINE-2-CARBOXYLIC ACID OR A DERIVATIVE THEREOF AND GLYPHOSATE OR GLUFOSINATE” (DOW AGROSCIENCES LLC, priority 2012, published 2014):

System: SCPMA (Schoenoplectus maritimus (L.) Lye or Bolboschoenus maritimus (L.) Palla, sea clubrush)
Test: Example II in-water applied mixtures, transplanted paddy rice weeds, greenhouse: SCPMA
Format: in vivo
Settings: Compound A Acid alone
Protocol: Weed seeds or nutlets of the desired test plant species were planted in puddled soil (mud) prepared by mixing a shredded, non-sterilized mineral soil (50.5 percent silt, 25.5 percent clay, and 24 percent sand, with a pH of about 7.6 and an organic matter content of about 2.9 percent) and water at a 1:1 volumetric ratio. The prepared mud was dispensed in 365 mL aliquots into 16-ounce (oz.) non-perforated plastic pots with a surface area of 86.59 square centimeters (cm^2) leaving a headspace of 3 centimeters (cm) in each pot. Mud was allowed to dry overnight prior to planting or transplanting. Rice seeds were planted in Sun Gro MetroMix® 306 planting mixture, which typically has a pH of 6.0 to 6.8 and an organic matter content of about 30 percent, in plastic plug trays. Seedlings at the second or third leaf stage of growth were transplanted into 840 mL of mud contained in 32-oz. non-perforated plastic pots with a surface area of 86.59 cm^2 4 days prior to herbicide application. The paddy was created by filling the headspace of the pots with 2.5 to 3 cm of water. […] The plants were grown for 4-22 days in a greenhouse with an approximate 14 hr photoperiod which was maintained at about 29′C during the day and 26° C. during the night. Nutrients were added as Osmocote® (19:6:12, N:P:K+minor nutrients) at 2 g per 16-oz. pot and 4 g per 32-oz. pot. Water was added on a regular basis to maintain the paddy flood, and supplemental lighting was provided with overhead metal halide 1000-Watt lamps as necessary. The plants were employed for testing when they reached the first through fourth true leaf stage.
Treatments consisted of the acid or esters of 4-amino-3-chloro-5-fluoro-6-(4-chloro-2-fluoro-3-methoxy-phenyl)pyridine-2-carboxylic acid (compound A) each formulated as an SC (suspension concentrate) and various herbicidal components alone and in combination. Forms of compound A were applied on an acid equivalent basis.
For formulated compounds, a measured amount was placed in an individual 100 or 200 mL glass vial and was dissolved in a volume of 1.25% (v/v) Agri-Dex® crop oil concentrate to obtain application solutions.
Applications were made by injecting with a pipetter appropriate amounts of the application solutions, individually and sequentially, into the aqueous layer of the paddy. Control plants were treated in the same manner with the solvent blank. Applications were made so that all treated plant material received the same concentrations of acetone and crop oil concentrate.
The treated plants and control plants were placed in a greenhouse as described above and water was added as needed to maintain a paddy flood. After approximately 3 weeks the condition of the test plants as compared with that of the untreated plants was determined visually and scored on a scale of 0 to 100 percent where 0 corresponds to no injury or growth inhibition and 100 corresponds to complete kill.
Colby's equation was used to determine the herbicidal effects expected from the mixtures (Colby, S. R. 1967. Calculation of the synergistic and antagonistic response of herbicide combinations. Weeds 15:20-22.).

Measured: Visual Weed Control (%) - 21 DAA SCPMA Obs

COc1c(Cl)ccc(-c2nc(C(=O)O)c(Cl)c(N)c2F)c1F [Compound A Acid, 4-amino-3-chloro-6-(4-chloro-2-fluoro-3-methoxyphenyl)-5-fluoropyridine-2-carboxylic acid]
0%: 8.75 gae/ha | 17.5 gae/ha | 35 gae/ha
